Test results as given in ChEMBL document CHEMBL4765450, “The components and activities analysis of a novel anticoagulant candidate dHG-5” (Eur J Med Chem, 2020).
Calls of active or inactive are those of the source. The rule behind the calls is not given here.

How the values were obtained:
[1] = target: T1, Coagulation factor IX/VIII (Homo sapiens) (UniProt P00740+P00451); test: (§1) Inhibition of human citrated plasma iXase (factor 8a-factor 9a complex) preincubated for 2 mins followed by factor 10 addition and measured after 1 min by FXa chromogenic substrate SXa-11 based assay relative to dHG-5; assay type: protein-complex assay; conditions: time 3.0 min
[2] = test system: Plasma; test: Anticoagulation activity in human plasma assessed as drug level causing 20 times doubling of APTT by measuring activity potency of oligosaccharides multiplied by the percentage of oligosaccharides in dHG-5 preincubated for 2 mins followed by APTT reagent and measured after 3 mins by coagulometric method relative to dHG-5; assay type: functional; conditions: time 5 min
[3] = target: Prothrombin (Homo sapiens) (UniProt P00734); test: Inhibition of factor 2a (unknown origin) at IC90 preincubated for 1 min followed by chromogenic substrate addition and measured for 2 mins in presence of AT-III; conditions: time 3.0 min
[4] = target: T2, Coagulation factor XII (Homo sapiens) (UniProt P00748); test: Inhibition of factor 12a (unknown origin) at IC50 using kallikrein chromogenic substrate preincubated for 1 min followed by chromogenic substrate addition and measured for 2 mins in presence of AT-III; conditions: time 3.0 min
T2 sequence (whole entry): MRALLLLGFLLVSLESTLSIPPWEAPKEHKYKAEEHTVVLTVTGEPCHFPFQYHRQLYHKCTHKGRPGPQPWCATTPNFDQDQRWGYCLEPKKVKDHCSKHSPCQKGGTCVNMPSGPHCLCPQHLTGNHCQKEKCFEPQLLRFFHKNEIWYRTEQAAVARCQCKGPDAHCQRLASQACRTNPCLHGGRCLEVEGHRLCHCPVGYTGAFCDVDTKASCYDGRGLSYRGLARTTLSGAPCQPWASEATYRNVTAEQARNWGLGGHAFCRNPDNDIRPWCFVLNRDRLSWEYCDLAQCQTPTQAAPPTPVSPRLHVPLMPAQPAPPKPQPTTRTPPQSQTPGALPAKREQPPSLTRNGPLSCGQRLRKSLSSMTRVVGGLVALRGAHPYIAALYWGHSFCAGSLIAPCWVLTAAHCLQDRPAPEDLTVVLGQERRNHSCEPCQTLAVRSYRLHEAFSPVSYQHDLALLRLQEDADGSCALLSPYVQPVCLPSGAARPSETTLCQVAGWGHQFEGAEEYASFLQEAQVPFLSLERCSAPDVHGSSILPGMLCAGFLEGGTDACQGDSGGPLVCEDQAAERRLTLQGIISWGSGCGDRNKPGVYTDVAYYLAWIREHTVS

[5] = target: Coagulation factor XI (Homo sapiens) (UniProt P03951); test: Inhibition of factor 11a (unknown origin) at IC90 using S-2366 as substrate preincubated for 1 min followed by chromogenic substrate addition and measured for 2 mins in presence of AT-III; conditions: time 3.0 min
Coagulation factor XI (Homo sapiens), sequence (P03951 19-387 limits assumed): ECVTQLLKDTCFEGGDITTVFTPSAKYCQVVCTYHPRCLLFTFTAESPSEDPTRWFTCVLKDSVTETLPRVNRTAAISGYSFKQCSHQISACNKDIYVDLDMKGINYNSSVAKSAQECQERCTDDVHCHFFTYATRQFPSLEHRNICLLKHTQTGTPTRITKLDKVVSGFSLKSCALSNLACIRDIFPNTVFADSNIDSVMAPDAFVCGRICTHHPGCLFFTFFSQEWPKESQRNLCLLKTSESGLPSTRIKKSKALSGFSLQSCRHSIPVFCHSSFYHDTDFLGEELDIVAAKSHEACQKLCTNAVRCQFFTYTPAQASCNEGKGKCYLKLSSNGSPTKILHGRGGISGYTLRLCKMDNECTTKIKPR
Coagulation factor XI (Homo sapiens), sequence (P03951 388-625 limits assumed): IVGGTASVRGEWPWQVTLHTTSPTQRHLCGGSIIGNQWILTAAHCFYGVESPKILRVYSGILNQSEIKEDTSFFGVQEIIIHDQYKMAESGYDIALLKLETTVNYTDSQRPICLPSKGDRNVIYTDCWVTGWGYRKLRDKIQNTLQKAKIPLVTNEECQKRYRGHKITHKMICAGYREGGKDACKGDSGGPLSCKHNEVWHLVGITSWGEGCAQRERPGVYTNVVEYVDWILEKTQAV

[6] = test system: Plasma; test: Anticoagulation activity in human plasma assessed as drug level causing 20 times doubling of APTT preincubated for 2 mins followed by APTT reagent and measured after 3 mins by coagulometric method relative to dHG-5; assay type: functional; conditions: time 5 min
[7] = target: Coagulation factor XI (Homo sapiens) (UniProt P03951); test: Inhibition of factor 11a (unknown origin) at IC50 using S-2366 as substrate preincubated for 1 min followed by chromogenic substrate addition and measured for 2 mins; conditions: time 3.0 min
[8] = target: Coagulation factor X (Homo sapiens) (UniProt P00742); test: Inhibition of factor 10a (unknown origin) at IC50 preincubated for 1 min followed by chromogenic substrate addition and measured for 2 mins in presence of AT-III; conditions: time 3.0 min
Coagulation factor X (Homo sapiens), sequence (P00742 41-179 limits assumed): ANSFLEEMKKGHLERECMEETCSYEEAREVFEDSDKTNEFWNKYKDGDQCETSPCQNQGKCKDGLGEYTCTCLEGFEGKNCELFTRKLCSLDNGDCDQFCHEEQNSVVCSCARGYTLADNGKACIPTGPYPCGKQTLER
Coagulation factor X (Homo sapiens), sequence (P00742 235-488 limits assumed): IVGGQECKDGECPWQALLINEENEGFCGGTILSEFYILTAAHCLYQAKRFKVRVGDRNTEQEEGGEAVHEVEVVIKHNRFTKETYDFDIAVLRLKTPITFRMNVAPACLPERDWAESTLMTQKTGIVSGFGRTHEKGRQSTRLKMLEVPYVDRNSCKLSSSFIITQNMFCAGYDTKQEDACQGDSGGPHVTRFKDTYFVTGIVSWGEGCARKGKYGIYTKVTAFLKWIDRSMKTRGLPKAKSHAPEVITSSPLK

[9] = target: Coagulation factor XI (Homo sapiens) (UniProt P03951); test: Inhibition of factor 11a (unknown origin) at IC50 using S-2366 as substrate preincubated for 1 min followed by chromogenic substrate addition and measured for 2 mins in presence of AT-III; conditions: time 3.0 min
[10] = target: Coagulation factor X (Homo sapiens) (UniProt P00742); test: Inhibition of factor 10a (unknown origin) at IC50 preincubated for 1 min followed by chromogenic substrate addition and measured for 2 mins; conditions: time 3.0 min
[11] = target: Coagulation factor X (Homo sapiens) (UniProt P00742); test: Inhibition of factor 10a (unknown origin) at IC90 preincubated for 1 min followed by chromogenic substrate addition and measured for 2 mins in presence of AT-III relative to control; conditions: time 3.0 min
[12] = test system: Rattus norvegicus; test: Antithrombotic activity in thromboplastin and stasis-induced Sprague-Dawley rat deep venous thrombosis model assessed as reduction in venous thrombosis by measuring activity potency of oligosaccharides multiplied by the percentage of oligosaccharides in dHG-5 at 3.64 mg/kg, sc administered 1 hr prior to thromboplastin addition for 20 secs followed by establishment of stasis for 20 mins relative …; assay type: functional; conditions: time 80.33 min, 1.339 h
[13] = target: Prothrombin (Homo sapiens) (UniProt P00734); test: Inhibition of factor 2a (unknown origin) at IC50 preincubated for 1 min followed by chromogenic substrate addition and measured for 2 mins; conditions: time 3.0 min
[14] = target: Prothrombin (Homo sapiens) (UniProt P00734); test: Inhibition of factor 2a (unknown origin) at IC50 preincubated for 1 min followed by chromogenic substrate addition and measured for 2 mins in presence of AT-III; conditions: time 3.0 min
[15] = target: T3, Coagulation factor IX (Homo sapiens, UniProt P00740); test: Inhibition of factor 9a (unknown origin) binding to immobilized biotinylated oHG-11 assessed as activity potency of oligosaccharides multiplied by the percentage of oligosaccharides in dHG-5 by biolayer interferometry relative to dHG-5
T3 sequence (P00740 47-191 limits assumed): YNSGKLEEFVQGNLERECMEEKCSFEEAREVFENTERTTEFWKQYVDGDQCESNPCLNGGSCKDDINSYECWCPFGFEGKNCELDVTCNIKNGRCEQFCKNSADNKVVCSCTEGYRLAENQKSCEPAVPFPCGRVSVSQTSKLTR
T3 sequence (P00740 227-461 limits assumed): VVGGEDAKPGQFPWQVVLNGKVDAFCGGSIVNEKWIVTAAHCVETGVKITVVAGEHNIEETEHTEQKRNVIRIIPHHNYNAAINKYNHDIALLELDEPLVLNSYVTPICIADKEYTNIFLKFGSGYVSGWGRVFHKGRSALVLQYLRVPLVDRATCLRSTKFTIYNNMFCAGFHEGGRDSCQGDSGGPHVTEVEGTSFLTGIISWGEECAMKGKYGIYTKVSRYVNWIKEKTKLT

[16] = target: T4, Coagulation factor VII (Homo sapiens) (UniProt P08709); test: Inhibition of factor 7a (unknown origin) at IC50 using pefachrome factor VIIa as substrate preincubated for 1 min followed by chromogenic substrate addition and measured for 2 mins; conditions: time 3.0 min
T4 sequence (whole entry): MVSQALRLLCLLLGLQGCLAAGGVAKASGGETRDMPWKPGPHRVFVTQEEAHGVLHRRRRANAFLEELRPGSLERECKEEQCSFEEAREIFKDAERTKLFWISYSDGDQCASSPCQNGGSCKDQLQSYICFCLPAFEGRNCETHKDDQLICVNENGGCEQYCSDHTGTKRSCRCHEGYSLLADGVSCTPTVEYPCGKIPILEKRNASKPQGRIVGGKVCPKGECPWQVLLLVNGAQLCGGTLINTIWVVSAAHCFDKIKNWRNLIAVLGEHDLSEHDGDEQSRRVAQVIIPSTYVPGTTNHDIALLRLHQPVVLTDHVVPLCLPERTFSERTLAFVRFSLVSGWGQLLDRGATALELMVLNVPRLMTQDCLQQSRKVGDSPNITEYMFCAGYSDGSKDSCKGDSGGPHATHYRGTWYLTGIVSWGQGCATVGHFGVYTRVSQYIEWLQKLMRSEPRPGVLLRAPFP

[17] = target: T2, Coagulation factor XII (Homo sapiens); test: Inhibition of factor 12a (unknown origin) at IC50 using kallikrein chromogenic substrate preincubated for 1 min followed by chromogenic substrate addition and measured for 2 mins; conditions: time 3.0 min
[18] = target: T4, Coagulation factor VII (Homo sapiens); test: Inhibition of factor 7a (unknown origin) at IC50 using pefachrome factor VIIa as substrate preincubated for 1 min followed by chromogenic substrate addition and measured for 2 mins in presence of AT-III; conditions: time 3.0 min
[19] = target: T1, Coagulation factor IX/VIII (Homo sapiens); test: as §1, with “complex) assessed as activity potency of oligosaccharides multiplied by the percentage of oligosaccharides in dHG-5” for “complex)”; assay type: protein-complex assay; conditions: time 3.0 min
[20] = target: T3, Coagulation factor IX; test: Inhibition of factor 9a (unknown origin) binding to immobilized biotinylated oHG-11 by biolayer interferometry relative to dHG-5
[21] = test system: Rattus norvegicus; test: Antithrombotic activity in thromboplastin and stasis-induced Sprague-Dawley rat deep venous thrombosis model assessed as reduction in venous thrombosis at 3.64 mg/kg, sc administered 1 hr prior to thromboplastin addition for 20 secs followed by establishment of stasis for 20 mins relative to dHG-5; assay type: functional; conditions: time 80.33 min, 1.339 h
[22] = test system: Rattus norvegicus; test: Antithrombotic activity in thromboplastin and stasis-induced Sprague-Dawley rat deep venous thrombosis model assessed as reduction in venous thrombosis by measuring activity potency of oligosaccharides multiplied by the percentage of oligosaccharides in dHG-5 at 2.7 mg/kg, sc administered 1 hr prior to thromboplastin addition for 20 secs followed by establishment of stasis for 20 mins relative to dHG-5; assay type: functional; conditions: time 80.33 min, 1.339 h
[23] = test system: Plasma; test: Induction of platelet aggregation in rat wash platelet at plasma peak concentration of 10 times anti-thrombosis ED50 measured after 10 mins by light transmission aggregometry
[24] = test system: Plasma; test: Induction of platelet aggregation in human platelet rich plasma at plasma peak concentration of 10 times anti-thrombosis ED50 measured after 10 mins by light transmission aggregometry
[25] = test system: Rattus norvegicus; test: Antithrombotic activity in thromboplastin and stasis-induced Sprague-Dawley rat deep venous thrombosis model assessed as reduction in venous thrombosis at 2.7 mg/kg, sc administered 1 hr prior to thromboplastin addition for 20 secs followed by establishment of stasis for 20 mins relative to dHG-5; assay type: functional; conditions: time 80.33 min, 1.339 h

Structure (SMILES)	Ratio [1] [U]	Ratio [2] [U]	inhibition [3]	inhibition [4]	inhibition [5]	Ratio [6] [U]	inhibition [7]	inhibition [8]	inhibition [9]	inhibition [10]	inhibition [11] [%]	inhibition [13]	inhibition [14]	Ratio [15] [U]	inhibition (active/not active) [16]	inhibition [17]	inhibition [18]	Ratio [19] [U]	Ratio [20] [U]	other results
CC(=O)N[C@H]1[C@H](O[C@@H]([C@H](O[C@@H]2O[C@@H](C)[C@@H](OS(=O)(=O)[O-])[C@@H](O)[C@@H]2OS(=O)(=O)O)[C@@H](O)CO)[C@H](O)C(=O)[O-])O[C@H](COS(=O)(=O)[O-])[C@H](OS(=O)(=O)[O-])[C@@H]1O[C@@H]1O[C@H](C(=O)[O-])[C@@H](O[C@@H]2O[C@H](COS(=O)(=O)[O-])[C@H](OS(=O)(=O)[O-])[C@H](O[C@@H]3O[C@H](C(=O)[O-])[C@@H](O[C@@H]4O[C@H](COS(=O)(=O)[O-])[C@H](OS(=O)(=O)[O-])[C@H](O[C@@H]5OC(C(=O)[O-])=C[C@H](O[C@@H]6O[C@@H](C)[C@@H](OS(=O)(=O)[O-])[C@@H](OS(=O)(=O)O)[C@@H]6O)[C@H]5O)[C@H]4NC(C)=O)[C@H](O[C@@H]4O[C@@H](C)[C@@H](OS(=O)(=O)[O-])[C@@H](O)[C@@H]4OS(=O)(=O)O)[C@H]3O)[C@H]2NC(C)=O)[C@H](O[C@@H]2O[C@@H](C)[C@@H](OS(=O)(=O)[O-])[C@@H](O)[C@@H]2OS(=O)(=O)O)[C@H]1O.[Na+].[Na+].[Na+].[Na+].[Na+].[Na+].[Na+].[Na+].[Na+].[Na+].[Na+].[Na+].[Na+].[Na+]	28.6	4.92	Active	inactive	Active	28.01	inactive	inactive	inactive	inactive	14.2	inactive	inactive	3.66	inactive	inactive	inactive	5.02	20.9	Ratio [12]: 8.55 U; Ratio [21]: 48.6 U
CC(=O)N[C@H]1[C@H](O[C@@H]([C@H](O[C@@H]2O[C@@H](C)[C@@H](OS(=O)(=O)[O-])[C@@H](OS(=O)(=O)O)[C@@H]2O)[C@@H](O)CO)[C@H](O)C(=O)[O-])O[C@H](COS(=O)(=O)[O-])[C@H](OS(=O)(=O)[O-])[C@@H]1O[C@@H]1O[C@H](C(=O)[O-])[C@@H](O[C@@H]2O[C@H](COS(=O)(=O)[O-])[C@H](OS(=O)(=O)[O-])[C@H](O[C@@H]3O[C@H](C(=O)[O-])[C@@H](O[C@@H]4O[C@H](COS(=O)(=O)[O-])[C@H](OS(=O)(=O)[O-])[C@H](O[C@@H]5O[C@H](C(=O)[O-])[C@@H](O[C@@H]6O[C@H](COS(=O)(=O)[O-])[C@H](OS(=O)(=O)[O-])[C@H](O[C@@H]7OC(C(=O)[O-])=C[C@H](O[C@@H]8O[C@@H](C)[C@@H](OS(=O)(=O)[O-])[C@@H](OS(=O)(=O)O)[C@@H]8O)[C@H]7O)[C@H]6NC(C)=O)[C@H](O[C@@H]6O[C@@H](C)[C@@H](OS(=O)(=O)[O-])[C@@H](OS(=O)(=O)O)[C@@H]6O)[C@H]5O)[C@H]4NC(C)=O)[C@H](O[C@@H]4O[C@@H](C)[C@@H](OS(=O)(=O)[O-])[C@@H](OS(=O)(=O)O)[C@@H]4O)[C@H]3O)[C@H]2NC(C)=O)[C@H](O[C@@H]2O[C@@H](C)[C@@H](OS(=O)(=O)[O-])[C@@H](OS(=O)(=O)O)[C@@H]2O)[C@H]1O.[Na+].[Na+].[Na+].[Na+].[Na+].[Na+].[Na+].[Na+].[Na+].[Na+].[Na+].[Na+].[Na+].[Na+].[Na+].[Na+].[Na+].[Na+]	51.8	9.73	Active	inactive	Active	61.09	inactive	inactive	inactive	inactive	14.2	inactive	inactive	5.72	inactive	inactive	inactive	8.26	35.9	Ratio [22]: 18.12 U; Activity [23]: Not Active; Activity [24]: Not Active; Ratio [25]: 113.95 U
